This is an account of results in PubChem BioAssay (NCI).

SMILES strings stand for the structures. Where “and” joins values, the source holds several entries; their conditions need not be identical. Equal values may be shown once.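 How tested: cells in 96-well plates exposed to compound for 48 hours at five concentrations. GI50 marks 50% less growth. The concentration for full growth arrest is given as TGI.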

What all share (test): NCI anticancer screen, dose series, 48 h
The test system of assay [1] is SR leukemia.
The test system of assay [2] is SF-295 CNS.
The test system of assay [3] is KM12 colon.
The test system of assay [4] is SK-MEL-2 melanoma.
The subject of assay [5] is MDA-MB-231 breast.
Assay [6] concerns HCC-2998 colon.
For assay [7], the system named is PC-3 prostate.
Assay [8] has as its system HOP-92 NSCLC.
For assay [9], the system named is A498 renal.
The subject of assay [10] is HOP-62 NSCLC.

With `Cc1cc(Cc2cc(C)cc(C(C)(C)C)c2O)c(O)c(C(C)(C)C)c1`, the GI50 in assay [1] was 4.46 µM; in [2], 2.54 µM; in assay [3], 3.79 µM; in [4], 15.1 µM; in assay [5], 9.83 µM; in [6], 4.3 µM. In addition, the GI50 is 5.15 µM in [7], 4.37 µM in assay [8], 12.9 µM in assay [9] and 14.1 µM in [10]. Also, the TGI in assay [1] is 45.9 µM; in assay [2], 6.23 µM; in assay [3], 13.6 µM; in [4] it was 33.6 µM; in assay [5], 21.7 µM; in [6], 15.9 µM. Moreover, the TGI came out at 18.6 µM in assay [7], 16 µM in assay [8], 25.5 µM in assay [9] and 27.1 µM in [10].

Consider `O=c1[nH]cnc2[nH]ncc12`, for which the GI50 was 480 µM in [1]; 349 µM in [2]; 1250 µM in assay [3]; > 36.5 µM and 257 µM in [4]; 163 µM in assay [5]; 319 µM in assay [6]. Also, the GI50 is 253 µM in assay [7], 163 µM in assay [8], 532 µM in assay [9] and 353 µM in assay [10]. Also, the TGI in assay [1] is above 2670 µM; in assay [2], above 5000 µM; in assay [3] it was above 5000 µM; in assay [4], above 5000 µM; in [5], 1750 µM; in [6], above 5000 µM. For the same compound, the TGI in [7] is above 5000 µM; in assay [8], above 3250 µM; in [9] it was above 5000 µM; in assay [10], above 5000 µM.

Take `c1ccc(-n2nnnc2-c2cccc3ccccc23)cc1`: the GI50 in [1] is 0.438 µM; in [2] it was 0.395 µM; in [3], 0.396 µM; in [4] it was 3.68 µM; in assay [5], 1.34 µM; in assay [6], 1.12 µM. Besides, the GI50 is 1.14 µM in [7], 1.19 µM in assay [8], 0.704 µM in [9] and 0.765 µM in assay [10]. Also, the TGI is 74.4 µM in [1]; 19.9 µM in [2]; 22.8 µM in assay [3]; above 63.1 µM in assay [4]; 28.8 µM in [5]; 10.3 µM in assay [6]. Also, the TGI in [7] was above 100 µM; in [8], 24.3 µM; in [9], above 55.3 µM; in assay [10] it was above 100 µM.

As to `O=C(O)c1cc(N=Cc2ccccc2O)cc(C(=O)O)c1`, the TGI in assay [1], in [2], in [3], in assay [4], in [5] and in assay [6] was above 100 µM each time. The TGI in assay [7], in [8], in assay [9] and in assay [10] was above 100 µM throughout.

As for `COc1cc(-c2nc3sc4c(c3c(=O)[nH]2)CCCCCC4)cc(OC)c1OC`, the GI50 is 0.776 µM in assay [1]; 0.692 µM in assay [2]; 1.21 µM in assay [3]; 1.11 µM in assay [4]; 1.07 µM in assay [5]; 2.41 µM in assay [6]. The GI50 in assay [7] was 1.5 µM; in assay [8] it was 0.887 µM; in assay [9], 0.694 µM; in [10] it was 1.36 µM. In addition, the TGI in assay [1] was above 33.2 µM; in assay [2], 6.53 µM; in assay [3], above 33.2 µM; in assay [4] it was 7.5 µM; in assay [5] it was 29.5 µM; in assay [6] it was above 33.2 µM. Besides, the TGI in assay [7] is above 33.2 µM; in [8], 9.45 µM; in assay [9], 3.17 µM; in [10] it was above 33.2 µM.

As to `Cc1cc(C)c(O)c(CN(C)Cc2cc(Cl)cc(Cl)c2O)c1`, the GI50 in assay [1] is 3.69 µM; in assay [2], 2.18 µM; in assay [3], 5.31 µM; in assay [4] it was 6.52 µM; in assay [5] it was 2.97 µM; in assay [6], 4.8 µM. Moreover, the GI50 in [7] was 6.97 µM; in assay [8] it was 3.07 µM; in assay [9] it was 5.69 µM; in [10], 5.46 µM. Further, the TGI in assay [1] came out at 24.5 µM; in assay [2], 6.18 µM; in assay [3], 17.7 µM; in [4] it was 19.6 µM; in assay [5], 12.8 µM; in assay [6], 17.4 µM. Further, the TGI in assay [7] stood at 42.3 µM; in [8] it was 13.3 µM; in assay [9], 21.9 µM; in assay [10], 18.3 µM.

Consider `COC(=O)[C@]12CC[C@@H](C)[C@H](C)[C@@H]1C1=CC[C@@H]3[C@@]4(C)C=C(O)C(=O)[C@@]5(C)COC(=C54)C[C@@]3(C)[C@]1(C)CC2`, for which the GI50 was 2.69 µM in [1]; 13 µM in assay [2]; 11.9 µM in assay [3]; 13.1 µM in assay [4]; 11.9 µM in assay [5]; 11.5 µM in [6]. Further, the GI50 in [7] was 4.77 µM; in assay [8], 14 µM; in assay [9], 15.2 µM; in [10], 15.4 µM. Further, the TGI in assay [1] turned out to be 8.77 µM; in [2] it was 28.7 µM; in assay [3] it was 29.4 µM; in assay [4], 29.6 µM; in [5] it was 29.7 µM; in assay [6], 26.7 µM. In addition, the TGI in assay [7] amounted to 18.5 µM; in assay [8] it was 28.9 µM; in assay [9], 32.5 µM; in [10], 35 µM.

As for `Cc1ccc2c(O)c(O)cc(NC(C)CCCN)c2n1` (stereo not given), the GI50 in assay [1] is 30.5 µM; in assay [2], above 48 µM; in assay [3] it was 25 µM; in assay [4] it was above 45.9 µM; in assay [5], 7.22 µM; in [6], 9.11 µM. Further, the GI50 in [7] was 22.9 µM; in [8], 57.5 µM; in assay [9], above 100 µM; in [10], 28.1 µM. Besides, the TGI is 79.3 µM in assay [1]; above 74.2 µM in assay [2]; 98.9 µM in assay [3]; above 91.9 µM in assay [4]; 74 µM in assay [5]; above 51.5 µM in assay [6]. Further, the TGI in [7] is above 66.5 µM; in assay [8], above 100 µM; in assay [9] it was above 100 µM; in assay [10], above 100 µM.
